Results: BigSolDB 2.1

CC(=O)O[C@H]1CC[C@@]2(C)C(=CC[C@@H]3[C@@H]2CC[C@]2(C)C(C(C)=O)=CC[C@@H]32)C1
Settings	solubility (mole fraction)
in acetone, 278.55 K	0.00427
in acetone, 281.35 K	0.0048
in acetone, 284.75 K	0.00538
in acetone, 288.65 K	0.00622
in acetone, 291.75 K	0.00678
in acetone, 293.95 K	0.00731
in acetone, 296.75 K	0.008
in acetone, 299.05 K	0.00875
in acetone, 301.55 K	0.00955
in acetone, 304.25 K	0.0105
in cyclohexane, 291.95 K	0.00212
in cyclohexane, 300.25 K	0.00314
in cyclohexane, 302.75 K	0.00363
in cyclohexane, 305.75 K	0.00426
in cyclohexane, 309.25 K	0.0049
in cyclohexane, 312.95 K	0.00574
in cyclohexane, 315.9 K	0.00662
in cyclohexane, 320.15 K	0.00767
in cyclohexane, 322.95 K	0.00878
in cyclohexane, 327.85 K	0.0112
in cyclohexane, 332.25 K	0.0135
in cyclohexane, 336.45 K	0.0162
in cyclohexane, 340.35 K	0.019
in ethanol, 285 K	0.00103
in ethanol, 289.85 K	0.00128
in ethanol, 292.6 K	0.00144
in ethanol, 294.95 K	0.00162
in ethanol, 297.65 K	0.00185
in ethanol, 300.95 K	0.0021
in ethanol, 304.55 K	0.0024
in ethanol, 307.55 K	0.00277
in ethanol, 310.55 K	0.00319
in ethanol, 314.15 K	0.00371
in ethanol, 317.55 K	0.00432
in ethanol, 321.35 K	0.00503
in ethanol, 324.55 K	0.00583
in ethanol, 327.05 K	0.0065
in methanol, 282.75 K	0.000402
in methanol, 286.85 K	0.000491
in methanol, 291.95 K	0.000632
in methanol, 295.15 K	0.000779
in methanol, 299.95 K	0.000965
in methanol, 303.85 K	0.00112
in methanol, 309.25 K	0.00142
in methanol, 312.15 K	0.0016
in methanol, 315.55 K	0.00185
in methanol, 318.35 K	0.00215
in methanol, 320.05 K	0.00231
